Measurements: patent US11459329B2, “Imidazopyridazine and imidazopyridine compounds and uses thereof” (Incyte Corporation, priority 2018, dated 2022)

How the values were obtained:
ALK2 (aa 147-end) = ALK2 (aa 147-end) (Homo sapiens (Human), UniProt Q04771); assay: ALK2 HTRF Assay; format: biochemical; conditions: 3 μM ATP, 0.5 nM ALK2, 2 hr, 25° C.; read-out: ALK2 IC50
Description: The enzymatic assays were conducted in white 384-well polystyrene plates in a final volume of 8 μL. The inhibitors were serially diluted in DMSO and added to the plate wells prior to addition of the other reaction components. The assays were carried out at 25° C. in the assay buffer (50 mM HEPES, pH 7.0, 10% Glycerol, 0.01% Brij50, 10 mM MgCl2, 1 mM EGTA, 5 mM DTT, and 0.01% BSA), containing 50 nM LANCE Ultra ULight™-DNA Topoisomerase 2-alpha peptide (Perkin Elmer TRF0130), and 3 μM ATP. The final concentration of DMSO in the assay was 1% and the enzyme concentration was 0.5 nM for ALK2. […] […] IC50 determination was performed by fitting percent control activity versus the log of the inhibitor concentration using the IDBS XLFit and GraphPad Prism 5.0 software.

ALK2 mutant DIPG cell = conditions: ALK2 mutant DIPG cells; cited from earlier work

ALK2 (aa 147-end), sequence (Q04771 147-509): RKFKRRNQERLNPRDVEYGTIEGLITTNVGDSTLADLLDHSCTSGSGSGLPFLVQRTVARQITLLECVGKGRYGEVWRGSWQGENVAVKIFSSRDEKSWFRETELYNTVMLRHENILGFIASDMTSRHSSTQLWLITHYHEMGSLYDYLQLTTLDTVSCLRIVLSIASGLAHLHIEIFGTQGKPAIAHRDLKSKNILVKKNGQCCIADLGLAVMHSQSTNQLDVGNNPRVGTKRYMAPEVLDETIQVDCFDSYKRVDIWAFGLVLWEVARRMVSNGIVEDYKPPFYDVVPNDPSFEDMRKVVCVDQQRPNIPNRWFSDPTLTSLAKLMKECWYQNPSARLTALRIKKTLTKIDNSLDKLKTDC

SMILES | IC50 (ALK2 (aa 147-end)) [nM] | inhibition of ALK2 mutant DIPG cell viability (ALK2 mutant DIPG cell)
Cc1cnn(-c2ccc3c(-c4cnc5cc(-c6ccc(CN7CCOCC7)cc6)c(C)nn45)ccnc3n2)n1 [Example 64, 4-(4-(6-Methyl-3-(7-(4-methyl-2H-1,2,3-triazol-2-yl)-1,8-naphthyridin-4-yl)imidazo[1,2-b]pyridazin-7-yl)benzyl)morpholine] | 1 to 5 | 
Cc1cnn(-c2ccc3c(-c4cnc5cc(-c6ccc(CN(C)C)cc6)c(C)nn45)ccnc3n2)n1 [Example 65, N,N-dimethyl-1-(4-(6-methyl-3-(7-(4-methyl-2H-1,2,3-triazol-2-yl)-1,8-naphthyridin-4-yl)imidazo[1,2-b]pyridazin-7-yl)phenyl)methanamine] | 1 to 5 | 
Cc1cnn(-c2ccc3c(-c4cnc5cc(-c6ccc(CN7CC[C@](C)(O)C7)cc6)c(C)nn45)ccnc3n2)n1 [Example 66, (S)-3-methyl-1-(4-(6-methyl-3-(7-(4-methyl-2H-1,2,3-triazol-2-yl)-1,8-naphthyridin-4-yl)imidazo[1,2-b]pyridazin-7-yl)benzyl)pyrrolidin-3-ol] | < 1 | 
Cc1cnn(-c2ccc3c(-c4cnc5cc(-c6ccc(CN7CCC(O)CC7)cc6)c(C)nn45)ccnc3n2)n1 [Example 67, 1-(4-(6-methyl-3-(7-(4-methyl-2H-1,2,3-triazol-2-yl)-1,8-naphthyridin-4-yl)imidazo[1,2-b]pyridazin-7-yl)benzyl)piperidin-4-ol] | < 1 | 
Cc1cnn(-c2ccc3c(-c4cnc5cc(-c6ccc(CN7CCC(C)(O)CC7)cc6)c(C)nn45)ccnc3n2)n1 [Example 68, 4-methyl-1-(4-(6-methyl-3-(7-(4-methyl-2H-1,2,3-triazol-2-yl)-1,8-naphthyridin-4-yl)imidazo[1,2-b]pyridazin-7-yl)benzyl)piperidin-4-ol] | < 1 | 
Cc1cnn(-c2ccc3c(-c4cnc5cc(-c6ccc(CN7CC(C)(O)C7)cc6)c(C)nn45)ccnc3n2)n1 [Example 69, 3-methyl-1-(4-(6-methyl-3-(7-(4-methyl-2H-1,2,3-triazol-2-yl)-1,8-naphthyridin-4-yl)imidazo[1,2-b]pyridazin-7-yl)benzyl)azetidin-3-ol] | 1 to 5 | 
Cc1cnn(-c2ccc3c(-c4cnc5cc(-c6ccc(CN7CCN(C)CC7)cc6)c(C)nn45)ccnc3n2)n1 [Example 70, 2-(4-methyl-2H-1,2,3-triazol-2-yl)-5-(6-methyl-7-(4-((4-methylpiperazin-1-yl)methyl)phenyl)imidazo[1,2-b]pyridazin-3-yl)-1,8-naphthyridine] | 1 to 5 | 
CCn1cnc(-c2ccc3c(-c4cnc5cc(-c6ccc(CN7CCC(O)CC7)cc6)c(C)nn45)ccnc3n2)c1 [Example 71, 1-(4-(3-(7-(1-Ethyl-1H-imidazol-4-yl)-1,8-naphthyridin-4-yl)-6-methylimidazo[1,2-b]pyridazin-7-yl)benzyl)piperidin-4-ol] | 1 to 5 | 
CCn1cnc(-c2ccc3c(-c4cnc5cc(-c6ccc(CN7CCC(C)(O)CC7)cc6)c(C)nn45)ccnc3n2)c1 [Example 72, 1-(4-(3-(7-(1-Ethyl-1H-imidazol-4-yl)-1,8-naphthyridin-4-yl)-6-methylimidazo[1,2-b]pyridazin-7-yl)benzyl)-4-methylpiperidin-4-ol] | < 1 | 
c1ccc2c(-c3cnn4cc(-c5ccc(N6CCNCC6)cc5)cnc34)ccnc2c1 [LDN-19318917] |  | significant inhibition
